Measurements published in ChEMBL document CHEMBL4627327, “Antibacterial activity of singly and doubly modified salinomycin derivatives” (Bioorg Med Chem Lett, 2020).
Values after ≈ are worked out from the molar mass of the structure shown. Active and inactive are the calls of the source. The rule behind the calls is not given here.

Assays:
Pseudomonas aeruginosa [1] = assay: Antibacterial activity against Pseudomonas aeruginosa ATCC 27853 assessed as bacterial growth inhibition measured after 18 hrs by CLSI protocol based two-fold serial microdilution method; format: functional, organism-based
Pseudomonas aeruginosa [2] = assay: Antibacterial activity against Pseudomonas aeruginosa ATCC 15442 assessed as bacterial growth inhibition measured after 18 hrs by CLSI protocol based two-fold serial microdilution method; format: functional, organism-based
Escherichia coli [3] = assay: Antibacterial activity against Escherichia coli ATCC 25922 assessed as bacterial growth inhibition measured after 18 hrs by CLSI protocol based two-fold serial microdilution method; format: functional, organism-based
Escherichia coli [4] = assay: Antibacterial activity against Escherichia coli NCTC 8196 assessed as bacterial growth inhibition measured after 18 hrs by CLSI protocol based two-fold serial microdilution method; format: functional, organism-based
[5] = system: Staphylococcus epidermidis; assay: Antibacterial activity against methicillin-resistant Staphylococcus epidermidis isolate 654 assessed as bacterial growth inhibition measured after 18 hrs by CLSI protocol based two-fold serial microdilution method; format: functional; settings: isolate 654, 18 h
[6] = system: Staphylococcus epidermidis; assay: Antibacterial activity against methicillin-resistant Staphylococcus epidermidis isolate 660 assessed as bacterial growth inhibition measured after 18 hrs by CLSI protocol based two-fold serial microdilution method; format: functional; settings: isolate 660, 18 h
[7] = system: Staphylococcus epidermidis; assay: Antibacterial activity against methicillin-resistant Staphylococcus epidermidis isolate 574 assessed as bacterial growth inhibition measured after 18 hrs by CLSI protocol based two-fold serial microdilution method; format: functional; settings: isolate 574, 18 h
Staphylococcus aureus [8] = assay: Antibacterial activity against methicillin-resistant Staphylococcus aureus isolate 750 assessed as bacterial growth inhibition measured after 18 hrs by CLSI protocol based two-fold serial microdilution method; format: functional; settings: isolate 750, 18 h
[9] = system: Staphylococcus epidermidis; assay: Antibacterial activity against methicillin-resistant Staphylococcus epidermidis isolate 602 assessed as bacterial growth inhibition measured after 18 hrs by CLSI protocol based two-fold serial microdilution method; format: functional; settings: isolate 602, 18 h
[10] = system: Staphylococcus epidermidis; assay: Antibacterial activity against methicillin-resistant Staphylococcus epidermidis isolate 609 assessed as bacterial growth inhibition measured after 18 hrs by CLSI protocol based two-fold serial microdilution method; format: functional; settings: isolate 609, 18 h
[11] = Genotoxicity in rec negative Bacillus subtilis M45 assessed as diameter of inhibition zone at 256 ug measured after 24 hrs by rec-assay; format: toxicity; settings: in vivo
Staphylococcus aureus [12] = assay: Antibacterial activity against methicillin-resistant Staphylococcus aureus isolate 584 assessed as bacterial growth inhibition measured after 18 hrs by CLSI protocol based two-fold serial microdilution method; format: functional; settings: isolate 584, 18 h
Staphylococcus aureus [13] = assay: Antibacterial activity against methicillin-resistant Staphylococcus aureus isolate 620 assessed as bacterial growth inhibition measured after 18 hrs by CLSI protocol based two-fold serial microdilution method; format: functional; settings: isolate 620, 18 h
[14] = Genotoxicity in rec-positive Bacillus subtilis H17 assessed as diameter of inhibition zone at 256 ug measured after 24 hrs by rec-assay; format: toxicity; settings: in vivo
Staphylococcus aureus [15] = assay: Antibacterial activity against methicillin-resistant Staphylococcus aureus isolate 621 assessed as bacterial growth inhibition measured after 18 hrs by CLSI protocol based two-fold serial microdilution method; format: functional; settings: isolate 621, 18 h
[16] = system: Staphylococcus epidermidis; assay: Antibacterial activity against methicillin-resistant Staphylococcus epidermidis isolate 603 assessed as bacterial growth inhibition measured after 18 hrs by CLSI protocol based two-fold serial microdilution method; format: functional; settings: isolate 603, 18 h
[17] = system: Staphylococcus epidermidis; assay: Inhibition of biofilm formation in Staphylococcus epidermidis ATCC 35984 at 1 to 8 ug/ml measured after 24 hrs by crystal violet staining based assay; format: functional, organism-based
Staphylococcus aureus [18] = assay: Antibacterial activity against methicillin-resistant Staphylococcus aureus isolate 770 assessed as bacterial growth inhibition measured after 18 hrs by CLSI protocol based two-fold serial microdilution method; format: functional; settings: isolate 770, 18 h
Staphylococcus aureus [19] = assay: Antibacterial activity against methicillin-resistant Staphylococcus aureus isolate 612 assessed as bacterial growth inhibition measured after 18 hrs by CLSI protocol based two-fold serial microdilution method; format: functional; settings: isolate 612, 18 h
[20] = system: Staphylococcus epidermidis; assay: Antibacterial activity against methicillin-resistant Staphylococcus epidermidis isolate 610 assessed as bacterial growth inhibition measured after 18 hrs by CLSI protocol based two-fold serial microdilution method; format: functional; settings: isolate 610, 18 h
Staphylococcus aureus [21] = assay: Antibacterial activity against methicillin-resistant Staphylococcus aureus isolate 583 assessed as bacterial growth inhibition measured after 18 hrs by CLSI protocol based two-fold serial microdilution method; format: functional; settings: isolate 583, 18 h
[22] = system: Staphylococcus epidermidis; assay: Inhibition of biofilm formation in Staphylococcus epidermidis ATCC 12228 at 1 to 8 ug/ml measured after 24 hrs by crystal violet staining based assay; format: functional, organism-based

Row | SMILES | Activity (Pseudomonas aeruginosa [1]) | Activity (Pseudomonas aeruginosa [2]) | Activity (Escherichia coli [3]) | Activity (Escherichia coli [4]) | further results
1 | CC[C@@H](C(=O)[C@@H](C)[C@@H](O)[C@H](C)[C@@H]1O[C@@H]([C@@H](CC)C(=O)NCC(F)(F)F)CC[C@@H]1C)[C@H]1O[C@]2(C=C[C@@H](O)[C@]3(CC[C@@](C)([C@H]4CC[C@](O)(CC)[C@H](C)O4)O3)O2)[C@H](C)C[C@@H]1C | inactive | inactive | inactive | inactive | –
2 | CC[C@@H](C(=O)[C@@H](C)[C@@H](O)[C@H](C)[C@@H]1O[C@@H]([C@@H](CC)C(=O)NCC(F)(F)F)CC[C@@H]1C)[C@H]1O[C@]2(C=CC(=O)[C@]3(CC[C@@](C)([C@H]4CC[C@](O)(CC)[C@H](C)O4)O3)O2)[C@H](C)C[C@@H]1C | inactive | inactive | inactive | inactive | –
3 | CC[C@@H](C(=O)[C@@H](C)[C@@H](O)[C@H](C)[C@@H]1O[C@@H]([C@@H](CC)C(=O)NCCc2ccc(F)cc2)CC[C@@H]1C)[C@H]1O[C@]2(C=CC(=O)[C@]3(CC[C@@](C)([C@H]4CC[C@](O)(CC)[C@H](C)O4)O3)O2)[C@H](C)C[C@@H]1C | inactive | inactive | inactive | inactive | –
4 | CC[C@@H](C(=O)[C@@H](C)[C@@H](O)[C@H](C)[C@@H]1O[C@@H]([C@@H](CC)C(=O)NCCc2ccc(F)cc2)CC[C@@H]1C)[C@H]1O[C@]2(C=C[C@@H](O)[C@]3(CC[C@@](C)([C@H]4CC[C@](O)(CC)[C@H](C)O4)O3)O2)[C@H](C)C[C@@H]1C | inactive | inactive | inactive | inactive | MIC [5]: 36.7 µM (≈ 32 µg/mL); MIC [6]: 36.7 µM (≈ 32 µg/mL); MIC [7]: 18.4 µM (≈ 16 µg/mL); MIC (Staphylococcus aureus [8]): 18.4 µM (≈ 16 µg/mL); MIC [9]: 36.7 µM (≈ 32 µg/mL); MIC [10]: 18.4 µM (≈ 16 µg/mL); diameter of the inhibition zone (DIZ) [11]: 27 mm; MIC (Staphylococcus aureus [12]): 18.4 µM (≈ 16 µg/mL); MIC (Staphylococcus aureus [13]): 18.4 µM (≈ 16 µg/mL); diameter of the inhibition zone (DIZ) [14]: 20 mm; MIC (Staphylococcus aureus [15]): 18.4 µM (≈ 16 µg/mL); MIC [16]: 18.4 µM (≈ 16 µg/mL); inhibition [17]: Active; MIC (Staphylococcus aureus [18]): 36.7 µM (≈ 32 µg/mL); MIC (Staphylococcus aureus [19]): 36.7 µM (≈ 32 µg/mL); MIC [20]: 36.7 µM (≈ 32 µg/mL); MIC (Staphylococcus aureus [21]): 18.4 µM (≈ 16 µg/mL); inhibition [22]: Active
5 | C#CCOC(=O)[C@H](CC)[C@H]1CC[C@H](C)[C@H]([C@@H](C)[C@H](O)[C@H](C)C(=O)[C@H](CC)[C@H]2O[C@]3(C=C[C@@H](O)[C@]4(CC[C@@](C)([C@H]5CC[C@](O)(CC)[C@H](C)O5)O4)O3)[C@H](C)C[C@@H]2C)O1 | inactive | inactive | inactive | inactive | –
6 | C#CCNC(=O)[C@H](CC)[C@H]1CC[C@H](C)[C@H]([C@@H](C)[C@H](O)[C@H](C)C(=O)[C@H](CC)[C@H]2O[C@]3(C=C[C@@H](O)[C@]4(CC[C@@](C)([C@H]5CC[C@](O)(CC)[C@H](C)O5)O4)O3)[C@H](C)C[C@@H]2C)O1 | inactive | inactive | inactive | inactive | –
7 | CC[C@@H](C(=O)[C@@H](C)[C@@H](O)[C@H](C)[C@@H]1O[C@@H]([C@@H](CC)C(=O)OCC(F)(F)F)CC[C@@H]1C)[C@H]1O[C@]2(C=C[C@@H](O)[C@]3(CC[C@@](C)([C@H]4CC[C@](O)(CC)[C@H](C)O4)O3)O2)[C@H](C)C[C@@H]1C | inactive | inactive | inactive | inactive | –
